Data taken from patent US20250353873A1, “COMPOUNDS AND METHODS FOR MODULATING APOE EXPRESSION” (Ionis Pharmaceuticals, Inc., priority 2024, published 2025).
pIC50: −log10 of the molar value. Strand notation (5' to 3'): a small letter for the sugar, then the base; units joined by * are phosphorothioate-linked, units joined directly phosphodiester-linked; [ ] holds rarer units or linkages, { } end groups; capitals alone tell only the bases. [ms] = mesyl phosphoramidate linkage; e = 2'-O-(2-methoxyethyl) (MOE); k = constrained ethyl (cEt); [5mC] = 5-methylcytosine; d = 2'-deoxy (DNA)

test system: human APOE RNA; assay: Dose-dependent inhibition of human APOE RNA in HepG2 cells, electroporation, 24 hours (Example 6); assay type: cell-based; conditions: not given
Method in brief: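 IC50 derived from APOE RNA levels, given as percent of untreated control after GAPDH normalization (probe sets RTS3073 and RTS104). Oligonucleotides were delivered at multiple concentrations by electroporation into HepG2 cells seeded at 50,000 per well.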

Substance | pIC50
1736531 (e[5mC]*eT*eT*eG*eG*kTdG[ms]dA[ms]dA[ms]dT*d[5mC]*dT*dT*dT*dA[ms]dT*eT*eA*eA*eA; antisense) [Compound 1736531] | 6.03
1736532 (e[5mC]*eT*eT*eG*kG*kTdG[ms]dA[ms]dA[ms]dT*d[5mC]*dT*dT*dT*dA[ms]dT*eT*eA*eA*eA; antisense) [Compound 1736532] | 6.55
1736533 (e[5mC]*eT*eT*eG*eGeT*dG[ms]dA[ms]dA[ms]dT*d[5mC]*dT*dT*dT*dA[ms]dT*kT*eA*eA*eA; antisense) [Compound 1736533] | 6.41

same assay, conditions: 5 nM

Substance | APOE RNA (% UTC)
1736531 (e[5mC]*eT*eT*eG*eG*kTdG[ms]dA[ms]dA[ms]dT*d[5mC]*dT*dT*dT*dA[ms]dT*eT*eA*eA*eA; antisense) [Compound 1736531] | 97
1736532 (e[5mC]*eT*eT*eG*kG*kTdG[ms]dA[ms]dA[ms]dT*d[5mC]*dT*dT*dT*dA[ms]dT*eT*eA*eA*eA; antisense) [Compound 1736532] | 81
1736533 (e[5mC]*eT*eT*eG*eGeT*dG[ms]dA[ms]dA[ms]dT*d[5mC]*dT*dT*dT*dA[ms]dT*kT*eA*eA*eA; antisense) [Compound 1736533] | 83

same assay, conditions: 13 nM

Substance | APOE RNA (% UTC)
1736531 (e[5mC]*eT*eT*eG*eG*kTdG[ms]dA[ms]dA[ms]dT*d[5mC]*dT*dT*dT*dA[ms]dT*eT*eA*eA*eA; antisense) [Compound 1736531] | 91
1736532 (e[5mC]*eT*eT*eG*kG*kTdG[ms]dA[ms]dA[ms]dT*d[5mC]*dT*dT*dT*dA[ms]dT*eT*eA*eA*eA; antisense) [Compound 1736532] | 85
1736533 (e[5mC]*eT*eT*eG*eGeT*dG[ms]dA[ms]dA[ms]dT*d[5mC]*dT*dT*dT*dA[ms]dT*kT*eA*eA*eA; antisense) [Compound 1736533] | 83

same assay, conditions: 33 nM

Substance | APOE RNA (% UTC)
1736531 (e[5mC]*eT*eT*eG*eG*kTdG[ms]dA[ms]dA[ms]dT*d[5mC]*dT*dT*dT*dA[ms]dT*eT*eA*eA*eA; antisense) [Compound 1736531] | 89
1736532 (e[5mC]*eT*eT*eG*kG*kTdG[ms]dA[ms]dA[ms]dT*d[5mC]*dT*dT*dT*dA[ms]dT*eT*eA*eA*eA; antisense) [Compound 1736532] | 74
1736533 (e[5mC]*eT*eT*eG*eGeT*dG[ms]dA[ms]dA[ms]dT*d[5mC]*dT*dT*dT*dA[ms]dT*kT*eA*eA*eA; antisense) [Compound 1736533] | 78

same assay, conditions: 82 nM

Substance | APOE RNA (% UTC)
1736531 (e[5mC]*eT*eT*eG*eG*kTdG[ms]dA[ms]dA[ms]dT*d[5mC]*dT*dT*dT*dA[ms]dT*eT*eA*eA*eA; antisense) [Compound 1736531] | 86
1736532 (e[5mC]*eT*eT*eG*kG*kTdG[ms]dA[ms]dA[ms]dT*d[5mC]*dT*dT*dT*dA[ms]dT*eT*eA*eA*eA; antisense) [Compound 1736532] | 71
1736533 (e[5mC]*eT*eT*eG*eGeT*dG[ms]dA[ms]dA[ms]dT*d[5mC]*dT*dT*dT*dA[ms]dT*kT*eA*eA*eA; antisense) [Compound 1736533] | 74

same assay, conditions: 205 nM

Substance | APOE RNA (% UTC)
1736531 (e[5mC]*eT*eT*eG*eG*kTdG[ms]dA[ms]dA[ms]dT*d[5mC]*dT*dT*dT*dA[ms]dT*eT*eA*eA*eA; antisense) [Compound 1736531] | 77
1736532 (e[5mC]*eT*eT*eG*kG*kTdG[ms]dA[ms]dA[ms]dT*d[5mC]*dT*dT*dT*dA[ms]dT*eT*eA*eA*eA; antisense) [Compound 1736532] | 54
1736533 (e[5mC]*eT*eT*eG*eGeT*dG[ms]dA[ms]dA[ms]dT*d[5mC]*dT*dT*dT*dA[ms]dT*kT*eA*eA*eA; antisense) [Compound 1736533] | 55

same assay, conditions: 512 nM

Substance | APOE RNA (% UTC)
1736531 (e[5mC]*eT*eT*eG*eG*kTdG[ms]dA[ms]dA[ms]dT*d[5mC]*dT*dT*dT*dA[ms]dT*eT*eA*eA*eA; antisense) [Compound 1736531] | 53
1736532 (e[5mC]*eT*eT*eG*kG*kTdG[ms]dA[ms]dA[ms]dT*d[5mC]*dT*dT*dT*dA[ms]dT*eT*eA*eA*eA; antisense) [Compound 1736532] | 41
1736533 (e[5mC]*eT*eT*eG*eGeT*dG[ms]dA[ms]dA[ms]dT*d[5mC]*dT*dT*dT*dA[ms]dT*kT*eA*eA*eA; antisense) [Compound 1736533] | 50

same assay, conditions: 1,280 nM

Substance | APOE RNA (% UTC)
1736531 (e[5mC]*eT*eT*eG*eG*kTdG[ms]dA[ms]dA[ms]dT*d[5mC]*dT*dT*dT*dA[ms]dT*eT*eA*eA*eA; antisense) [Compound 1736531] | 49
1736532 (e[5mC]*eT*eT*eG*kG*kTdG[ms]dA[ms]dA[ms]dT*d[5mC]*dT*dT*dT*dA[ms]dT*eT*eA*eA*eA; antisense) [Compound 1736532] | 32
1736533 (e[5mC]*eT*eT*eG*eGeT*dG[ms]dA[ms]dA[ms]dT*d[5mC]*dT*dT*dT*dA[ms]dT*kT*eA*eA*eA; antisense) [Compound 1736533] | 38

same assay, conditions: 3,200 nM

Substance | APOE RNA (% UTC)
1736531 (e[5mC]*eT*eT*eG*eG*kTdG[ms]dA[ms]dA[ms]dT*d[5mC]*dT*dT*dT*dA[ms]dT*eT*eA*eA*eA; antisense) [Compound 1736531] | 33
1736532 (e[5mC]*eT*eT*eG*kG*kTdG[ms]dA[ms]dA[ms]dT*d[5mC]*dT*dT*dT*dA[ms]dT*eT*eA*eA*eA; antisense) [Compound 1736532] | 17
1736533 (e[5mC]*eT*eT*eG*eGeT*dG[ms]dA[ms]dA[ms]dT*d[5mC]*dT*dT*dT*dA[ms]dT*kT*eA*eA*eA; antisense) [Compound 1736533] | 28

same assay, conditions: 8,000 nM

Substance | APOE RNA (% UTC)
1736531 (e[5mC]*eT*eT*eG*eG*kTdG[ms]dA[ms]dA[ms]dT*d[5mC]*dT*dT*dT*dA[ms]dT*eT*eA*eA*eA; antisense) [Compound 1736531] | 12
1736532 (e[5mC]*eT*eT*eG*kG*kTdG[ms]dA[ms]dA[ms]dT*d[5mC]*dT*dT*dT*dA[ms]dT*eT*eA*eA*eA; antisense) [Compound 1736532] | 23
1736533 (e[5mC]*eT*eT*eG*eGeT*dG[ms]dA[ms]dA[ms]dT*d[5mC]*dT*dT*dT*dA[ms]dT*kT*eA*eA*eA; antisense) [Compound 1736533] | 13

same assay, conditions: 20,000 nM

Substance | APOE RNA (% UTC)
1736531 (e[5mC]*eT*eT*eG*eG*kTdG[ms]dA[ms]dA[ms]dT*d[5mC]*dT*dT*dT*dA[ms]dT*eT*eA*eA*eA; antisense) [Compound 1736531] | 20
1736532 (e[5mC]*eT*eT*eG*kG*kTdG[ms]dA[ms]dA[ms]dT*d[5mC]*dT*dT*dT*dA[ms]dT*eT*eA*eA*eA; antisense) [Compound 1736532] | 5
1736533 (e[5mC]*eT*eT*eG*eGeT*dG[ms]dA[ms]dA[ms]dT*d[5mC]*dT*dT*dT*dA[ms]dT*kT*eA*eA*eA; antisense) [Compound 1736533] | 5

test system: human APOE RNA; assay: Activity in APOE C57BL/6NTac-Apoeem7250 knock-in mice, single ICV bolus, 4 weeks (Example 10); assay type: in vivo; conditions: Cortex; C57BL/6NTac-Apoeem7250 knock-in mice, single ICV bolus 300 μg, 4 weeks (Table 22)
Protocol: Modified oligonucleotides described above were tested in the APOE C57BL/6NTac-Apoeem7250 knock-in mouse model described above.
APOE C57BL/6NTac-Apoeem7250 knock-in mice were divided into groups of 2-4 mice each. Each mouse received a single ICV bolus of 300 μg of modified oligonucleotide. A group of 3-4 mice received a single ICV bolus with PBS as a negative control.
Four weeks post treatment, mice were sacrificed and RNA was extracted from cortical brain tissue and spinal cord for quantitative real-time RT-PCR analysis of RNA expression of APOE using human primer probe set RTS3073 (described herein above). APOE RNA levels were normalized to mouse Ppia. Mouse Ppia was amplified using primer probe set m_cyclo24 (described herein above). Results are presented as percent human APOE RNA relative to the amount of human APOE RNA in PBS treated animals, (% control). Each experiment is identified in separate tables below.

Substance | APOE RNA (% control) Cortex [% control]
1736531 (e[5mC]*eT*eT*eG*eG*kTdG[ms]dA[ms]dA[ms]dT*d[5mC]*dT*dT*dT*dA[ms]dT*eT*eA*eA*eA; antisense) [Compound 1736531] | 42
1736532 (e[5mC]*eT*eT*eG*kG*kTdG[ms]dA[ms]dA[ms]dT*d[5mC]*dT*dT*dT*dA[ms]dT*eT*eA*eA*eA; antisense) [Compound 1736532] | 30
1736533 (e[5mC]*eT*eT*eG*eGeT*dG[ms]dA[ms]dA[ms]dT*d[5mC]*dT*dT*dT*dA[ms]dT*kT*eA*eA*eA; antisense) [Compound 1736533] | 34

same assay, conditions: Spinal Cord; C57BL/6NTac-Apoeem7250 knock-in mice, single ICV bolus 300 μg, 4 weeks (Table 22)

Substance | APOE RNA (% control) Spinal Cord [% control]
1736531 (e[5mC]*eT*eT*eG*eG*kTdG[ms]dA[ms]dA[ms]dT*d[5mC]*dT*dT*dT*dA[ms]dT*eT*eA*eA*eA; antisense) [Compound 1736531] | 52
1736532 (e[5mC]*eT*eT*eG*kG*kTdG[ms]dA[ms]dA[ms]dT*d[5mC]*dT*dT*dT*dA[ms]dT*eT*eA*eA*eA; antisense) [Compound 1736532] | 38
1736533 (e[5mC]*eT*eT*eG*eGeT*dG[ms]dA[ms]dA[ms]dT*d[5mC]*dT*dT*dT*dA[ms]dT*kT*eA*eA*eA; antisense) [Compound 1736533] | 54

test system: human APOE RNA; assay: Activity in APOE C57BL/6NTac-Apoeem7250 knock-in mice, single ICV bolus, 16 weeks (Example 12); assay type: in vivo; conditions: cortex; single ICV bolus 300 μg; 16 weeks post treatment; normalized to mouse Ppia
Method in brief: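 A single 300 μg intracerebroventricular dose was given, with PBS-treated mice as reference; cortical and spinal cord tissue was taken 16 weeks later. RT-qPCR quantified human APOE RNA, Ppia-normalized, expressed relative to PBS animals (% control).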

Substance | APOE RNA (% control) Cortex [% control]
1736531 (e[5mC]*eT*eT*eG*eG*kTdG[ms]dA[ms]dA[ms]dT*d[5mC]*dT*dT*dT*dA[ms]dT*eT*eA*eA*eA; antisense) [Compound 1736531] | 54
1736532 (e[5mC]*eT*eT*eG*kG*kTdG[ms]dA[ms]dA[ms]dT*d[5mC]*dT*dT*dT*dA[ms]dT*eT*eA*eA*eA; antisense) [Compound 1736532] | 34
1736533 (e[5mC]*eT*eT*eG*eGeT*dG[ms]dA[ms]dA[ms]dT*d[5mC]*dT*dT*dT*dA[ms]dT*kT*eA*eA*eA; antisense) [Compound 1736533] | 57

same assay, conditions: spinal cord; single ICV bolus 300 μg; 16 weeks post treatment; normalized to mouse Ppia

Substance | APOE RNA (% control) Spinal Cord [% control]
1736531 (e[5mC]*eT*eT*eG*eG*kTdG[ms]dA[ms]dA[ms]dT*d[5mC]*dT*dT*dT*dA[ms]dT*eT*eA*eA*eA; antisense) [Compound 1736531] | 74
1736532 (e[5mC]*eT*eT*eG*kG*kTdG[ms]dA[ms]dA[ms]dT*d[5mC]*dT*dT*dT*dA[ms]dT*eT*eA*eA*eA; antisense) [Compound 1736532] | 45
1736533 (e[5mC]*eT*eT*eG*eGeT*dG[ms]dA[ms]dA[ms]dT*d[5mC]*dT*dT*dT*dA[ms]dT*kT*eA*eA*eA; antisense) [Compound 1736533] | 49
